Source: publication PMC3185571 (Viruses, 2010)
Where two headings read alike, the source gives them in different places.

Assays:
[1] = molecular target: neuraminidase of A/England/412/2008 (H1N1), H275H/Y mix; assay type: biochemical, influenza A(H1N1) virus
[2] = molecular target: neuraminidase of seasonal influenza B virus isolates (Influenza B virus, UniProt U5XBU0); assay type: biochemical
[3] = molecular target: neuraminidase of 2009 pandemic H1N1 H275 wildtype virus isolates (Influenza A virus, UniProt C3W5S3); assay type: biochemical, 2009 pandemic H1N1 influenza virus
[4] = molecular target: neuraminidase of seasonal influenza A(H3N2) virus isolates (Influenza A virus, UniProt X2GK54); assay type: biochemical
[5] = molecular target: neuraminidase of A/California/07/2009, H1N1 Pandemic, WT (Influenza A virus (A/California/07/2009(H1N1)), UniProt C7FH46); assay type: biochemical, 2009 pandemic H1N1 influenza virus; conditions: read-out: Mean IC50 ± SD
[6] = molecular target: neuraminidase of A/Washington/01/2007, A (H3N2) Seasonal, WT (Influenza A virus, UniProt A7UPN3); assay: biochemical
[7] = molecular target: neuraminidase of Pandemic H1N1 virus isolates (Influenza A virus, UniProt C7FH46); assay type: biochemical, 2009 pandemic H1N1 influenza virus
[8] = molecular target: neuraminidase of B/Memphis/20/1996, B Seasonal, WT (Influenza B virus, UniProt C7FPS7); assay type: biochemical; conditions: read-out: Mean IC50 ± SD
[9] = molecular target: neuraminidase of seasonal influenza A(H1N1) H275 wildtype virus isolates (Influenza A virus, UniProt A8C8J7); assay type: biochemical
[10] = molecular target: neuraminidase of A/Washington/10/2008, A (H1N1) Seasonal, WT (Influenza A virus, UniProt G3LYQ1); assay type: biochemical; conditions: read-out: Mean IC50 ± SD
[11] = system: neuraminidase of seasonal influenza A(H1N1) viruses; assay type: biochemical, influenza A(H1N1) virus
[12] = system: neuraminidase of B/New Jersey/02/2009; assay type: biochemical, influenza B virus
[13] = system: neuraminidase of B/Okinawa/10/2009; assay type: biochemical, influenza B virus
[14] = read-out: IC50 Statistical Cutoff (X0.75 + 3IQR)
[15] = read-out: IC50 X0.75 (75th Percentile)

## CCC(CC)[C@H](NC(C)=O)[C@@H]1[C@H](O)[C@@H](C(=O)O)C[C@H]1N=C(N)N [Peramivir, peramivir]
[1]
  IC50: 510 pM
[2]
  susceptibility in NI assay: sensitive
[2]; read-out: IC50 Mean (±SD)
  IC50: 560 pM
[2]; read-out: IC50 Median
  IC50: 560 pM
[2]; read-out: IC50 Range
  IC50: 240 to 1100 pM
[2]; [14]
  IC50: 1370 pM
[2]; [15]
  IC50: 680 pM
[3]; read-out: IC50 Mean (±SD)
  IC50: 80 ± 40 pM
[3]; read-out: IC50 Median
  IC50: 70 pM
[3]; read-out: IC50 Range
  IC50: 30 to 350 pM
[3]; [14]
  IC50: 220 pM
[3]; [15]
  IC50: 100 pM
[4]; read-out: IC50 Mean (±SD)
  IC50: 170 ± 100 pM
[4]; read-out: IC50 Median
  IC50: 140 pM
[4]; read-out: IC50 Range
  IC50: 50 to 940 pM
[4]; [14]
  IC50: 400 pM
[4]; [15]
  IC50: 190 pM
[5]
  IC50: 60 pM
[6]; read-out: Mean IC50 ± SD
  IC50: 120 pM
[7]
  susceptibility in NI assay: sensitive
[8]
  IC50: 310 pM
[9]; read-out: IC50 Mean (±SD)
  IC50: 100 pM
[9]; read-out: IC50 Median
  IC50: 100 pM
[9]; read-out: IC50 Range
  IC50: 50 to 170 pM
[9]; [14]
  IC50: 280 pM
[9]; [15]
  IC50: 130 pM
[10]
  IC50: 90 pM

## CC(=O)N[C@H]1[C@H]([C@H](O)[C@H](O)CO)OC(C(=O)O)=C[C@@H]1N=C(N)N [Zanamivir, zanamivir]
[4]
  susceptibility in NI assay: sensitive
[11]
  susceptibility in NI assay: sensitive
[5]
  IC50: 260 pM
[6]
  IC50: 470 pM
[12]
  susceptibility in NI assay: reduced susceptibility
[7]
  susceptibility in NI assay: sensitive
[13]
  susceptibility in NI assay: reduced susceptibility
